# Results published in patent US7414071B2, “Methods of treatment with selective EP4 receptor agonists” (Pfizer Inc., priority 2002, dated 2008).
# Assays:
# [1] = system: M. fascicularis primates; test: In vivo primate model (hypotensive effect: mean arterial pressure and heart rate); conditions: monkeys; for mean arterial pressure (MAP) / heart rate (HR): 0.1 mgA/kg SC bolus, mean of 2; for mean arterial pressure (MAP): baseline 101; for heart rate (HR): baseline 161
# [2] = system: New Zealand White male rabbits; test: In vivo anesthetized rabbit model (hypotensive effect: mean arterial pressure and heart rate)
# Description: Methods: New Zealand White male rabbits (3-4 kg) are anesthetized with sodium pentobarbital (30 mg/kg, i.v.) and a surgical plane of anesthesia is maintained by a continuous infusion of sodium pentobarbital (16 mg/kg/hr) via an ear vein catheter. A tracheotomy is performed through a ventral midline cervical incision and the rabbits are ventilated with 100% oxygen using a positive pressure ventilator. Body temperature is maintained at 38.5° C. using a heating pad connected to a YSI temperature controller model 72 (Yellow Springs Instruments, Yellow Springs, […].). Fluid-filled catheters are placed in the right jugular vein (for intravenous drug administration) and in the right carotid artery for arterial pressure monitoring and for blood gas analysis using a model 248 blood gas analyzer (Bayer Diagnostics, Norwood, Mass.). The ventilator is adjusted as needed to maintain blood pH and pCO2 within normal physiological ranges for rabbits. […] Blood is sampled after dosing or during the infusion of the test compound to determine plasma concentrations of the test compounds.
# Thus, dosing volumes were 0.2 ml/kg (Group A) subcutaneously or 5 ml/h (Groups B, C, and D) as an intravenous (IV) infusion. The term “mgA” means the number of milligrams adjusted for active compound (e.g. corrected for salt etc.).
# Dosing: Four groups (Groups A, B, C, and D) of two rabbits each were dosed as follows.
# [3] = Group A, 1 mgA/kg SC, three monkeys
# [4] = Group C, 0.1 mgA/kg SC, 2 monkeys
# [5] = Group B, 167 μg/kg/h IV infusion
compound,measurement,setting,value
O=C([O-])c1ccc(CCCN2C(=O)CC[C@@H]2CC[C@@H](O)Cc2cccc(C(F)(F)F)c2)s1.[Na+] [Compound 3M sodium salt],duration of hypotension,"[1]; Group A, 1 mgA/kg SC",sustained over the 4 hours post-dose
same,onset of hypotension,"[1]; Group A, 1 mgA/kg SC",< 2 min
same,effect on heart rate,[1]; [3],transient increase in heart rate
same,effect on mean arterial pressure,[1]; [3],decrease in mean arterial pressure
same,duration of hypotension,"[1]; Group C, 0.1 mgA/kg SC",sustained over the 4 hours post-dose
same,onset of hypotension,"[1]; Group C, 0.1 mgA/kg SC",< 4 min
same,mean arterial pressure (MAP),"[1]; Group C, 5 min post-dose",91 mm Hg
same,heart rate (HR),"[1]; Group C, 5 min post-dose",203 beats/minute
same,mean arterial pressure (MAP),"[1]; Group C, 10 min post-dose",57 mm Hg
same,heart rate (HR),"[1]; Group C, 10 min post-dose",206 beats/minute
same,mean arterial pressure (MAP),"[1]; Group C, 15 min post-dose",51 mm Hg
same,heart rate (HR),"[1]; Group C, 15 min post-dose",187 beats/minute
same,mean arterial pressure (MAP),"[1]; Group C, 30 min post-dose",53 mm Hg
same,heart rate (HR),"[1]; Group C, 30 min post-dose",190 beats/minute
same,mean arterial pressure (MAP),"[1]; Group C, 60 min post-dose",58 mm Hg
same,heart rate (HR),"[1]; Group C, 60 min post-dose",180 beats/minute
same,mean arterial pressure (MAP),"[1]; Group C, 90 min post-dose",58 mm Hg
same,heart rate (HR),"[1]; Group C, 90 min post-dose",180 beats/minute
same,mean arterial pressure (MAP),"[1]; Group C, 120 min post-dose",62 mm Hg
same,heart rate (HR),"[1]; Group C, 120 min post-dose",183 beats/minute
same,mean arterial pressure (MAP),"[1]; Group C, 150 min post-dose",65 mm Hg
same,heart rate (HR),"[1]; Group C, 150 min post-dose",187 beats/minute
same,mean arterial pressure (MAP),"[1]; Group C, 180 min post-dose",66 mm Hg
same,heart rate (HR),"[1]; Group C, 180 min post-dose",187 beats/minute
same,mean arterial pressure (MAP),"[1]; Group C, 210 min post-dose",71 mm Hg
same,heart rate (HR),"[1]; Group C, 210 min post-dose",191 beats/minute
same,mean arterial pressure (MAP),"[1]; Group C, 240 min post-dose",79 mm Hg
same,heart rate (HR),"[1]; Group C, 240 min post-dose",193 beats/minute
same,effect on heart rate,[1]; [4],transient increase in heart rate that returned toward normal but leveled off and remained elevated over the 4 hours post-dose
same,effect on mean arterial pressure,[1]; [4],decrease in mean arterial pressure
same,duration of hemodynamic effect,"[2]; Group A, 1 mgA/kg SC",sustained over the entire 4 hour post-dose interval
same,effect on heart rate,"[2]; Group A, 1 mgA/kg SC",increase in heart rate
same,effect on mean arterial pressure,"[2]; Group A, 1 mgA/kg SC",decrease in mean arterial pressure
same,onset of hemodynamic effect,"[2]; Group A, 1 mgA/kg SC",< 2 min
same,mean arterial pressure (MAP),"[2]; Group A, 1 mgA/kg SC bolus, 5 min post-dose, mean of 2, baseline 92",69 mm Hg
same,heart rate (HR),"[2]; Group A, 1 mgA/kg SC bolus, 5 min post-dose, mean of 2, baseline 243",268 beats/minute
same,mean arterial pressure (MAP),"[2]; Group A, 1 mgA/kg SC bolus, 10 min post-dose, mean of 2, baseline 92",59 mm Hg
same,heart rate (HR),"[2]; Group A, 1 mgA/kg SC bolus, 10 min post-dose, mean of 2, baseline 243",283 beats/minute
same,mean arterial pressure (MAP),"[2]; Group A, 1 mgA/kg SC bolus, 15 min post-dose, mean of 2, baseline 92",60 mm Hg
same,heart rate (HR),"[2]; Group A, 1 mgA/kg SC bolus, 15 min post-dose, mean of 2, baseline 243",285 beats/minute
same,mean arterial pressure (MAP),"[2]; Group A, 1 mgA/kg SC bolus, 30 min post-dose, mean of 2, baseline 92",59 mm Hg
same,heart rate (HR),"[2]; Group A, 1 mgA/kg SC bolus, 30 min post-dose, mean of 2, baseline 243",284 beats/minute
same,mean arterial pressure (MAP),"[2]; Group A, 1 mgA/kg SC bolus, 60 min post-dose, mean of 2, baseline 92",59 mm Hg
same,heart rate (HR),"[2]; Group A, 1 mgA/kg SC bolus, 60 min post-dose, mean of 2, baseline 243",288 beats/minute
same,mean arterial pressure (MAP),"[2]; Group A, 1 mgA/kg SC bolus, 90 min post-dose, mean of 2, baseline 92",59 mm Hg
same,heart rate (HR),"[2]; Group A, 1 mgA/kg SC bolus, 90 min post-dose, mean of 2, baseline 243",284 beats/minute
same,mean arterial pressure (MAP),"[2]; Group A, 1 mgA/kg SC bolus, 120 min post-dose, mean of 2, baseline 92",58 mm Hg
same,heart rate (HR),"[2]; Group A, 1 mgA/kg SC bolus, 120 min post-dose, mean of 2, baseline 243",278 beats/minute
same,mean arterial pressure (MAP),"[2]; Group A, 1 mgA/kg SC bolus, 150 min post-dose, mean of 2, baseline 92",57 mm Hg
same,heart rate (HR),"[2]; Group A, 1 mgA/kg SC bolus, 150 min post-dose, mean of 2, baseline 243",275 beats/minute
same,mean arterial pressure (MAP),"[2]; Group A, 1 mgA/kg SC bolus, 180 min post-dose, mean of 2, baseline 92",60 mm Hg
same,heart rate (HR),"[2]; Group A, 1 mgA/kg SC bolus, 180 min post-dose, mean of 2, baseline 243",273 beats/minute
same,mean arterial pressure (MAP),"[2]; Group A, 1 mgA/kg SC bolus, 210 min post-dose, mean of 2, baseline 92",61 mm Hg
same,heart rate (HR),"[2]; Group A, 1 mgA/kg SC bolus, 210 min post-dose, mean of 2, baseline 243",273 beats/minute
same,mean arterial pressure (MAP),"[2]; Group A, 1 mgA/kg SC bolus, 240 min post-dose, mean of 2, baseline 92",65 mm Hg
same,heart rate (HR),"[2]; Group A, 1 mgA/kg SC bolus, 240 min post-dose, mean of 2, baseline 243",273 beats/minute
same,duration of hemodynamic effect,[2]; [5],sustained over the entire 4 hour post-dose interval
same,effect on heart rate,[2]; [5],increase in heart rate
same,effect on mean arterial pressure,[2]; [5],decrease in mean arterial pressure
same,onset of hemodynamic effect,[2]; [5],< 2 min
same,mean arterial pressure (MAP),"[2]; Group B, 167 μg/kg/hr IV infusion for 4 hours, 5 min, mean of 2, baseline 87",67 mm Hg
same,heart rate (HR),"[2]; Group B, 167 μg/kg/hr IV infusion for 4 hours, 5 min, mean of 2, baseline 260",296 beats/minute
same,mean arterial pressure (MAP),"[2]; Group B, 167 μg/kg/hr IV infusion for 4 hours, 10 min, mean of 2, baseline 87",67 mm Hg
same,heart rate (HR),"[2]; Group B, 167 μg/kg/hr IV infusion for 4 hours, 10 min, mean of 2, baseline 260",296 beats/minute
same,mean arterial pressure (MAP),"[2]; Group B, 167 μg/kg/hr IV infusion for 4 hours, 15 min, mean of 2, baseline 87",69 mm Hg
